Source: article doi:10.1101/2023.04.24.538046v2 (biorxiv, 2023)

Molecular target: TcMIP (Trypanosoma cruzi, UniProt Q09734)
Experiment: biochemical

TcMIP, sequence (Q09734 30-196 limits assumed): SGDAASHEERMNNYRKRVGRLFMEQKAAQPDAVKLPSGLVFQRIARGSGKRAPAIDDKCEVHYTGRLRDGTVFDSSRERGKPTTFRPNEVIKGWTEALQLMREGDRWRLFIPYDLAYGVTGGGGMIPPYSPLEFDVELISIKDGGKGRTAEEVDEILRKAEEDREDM

Compound: C[C@@H](c1ccccn1)N1C[C@H](CO)[C@H]2CCC[C@@H](C1=O)N2S(=O)(=O)c1cc(Cl)cc(Cl)c1 [JK236]
- Kd: 0.0455 ± 0.0092 µM

Compound: O=C1[C@@H]2CCC[C@H]([C@@H](CO)CN1Cc1ccccn1)N2S(=O)(=O)c1cc(Cl)cc(Cl)c1 [JK095, (1S,5S,6R)-10-((3,5-dichlorophenyl)sulfonyl)-5-(hydroxymethyl)-3-(pyridin-2-ylmethyl)-3,10-diazabicyclo [4.3.1]decan-2-one]
- Kd: 0.599 ± 0.0255 µM
